Results from the Kinase Knowledgebase extract (Sharma et al. 2016).

What follows are compounds tested against CDK2 (UniProt P24941) (assay: Enzyme Assay).

IC50, < 50 µM:
O=C(Nc1csc(-c2ccncc2)n1)Nc1ccc2ccccc2n1, Cc1ccc(NC(=O)Nc2csc(-c3ccncc3)n2)nc1, O=C(Nc1csc(-c2cccnc2)n1)Nc1nc(-c2ccccc2)cs1, Cc1cccc(NC(=O)Nc2csc(-c3ccncc3)n2)n1, O=C(Nc1ccc(C(F)(F)F)cn1)Nc1csc(-c2ccncc2)n1, O=C(Nc1csc(-c2ccncc2)n1)Nc1nc(-c2cccnc2)cs1, Cc1cccc(NC(=O)Nc2csc(-c3cccnc3)n2)n1, O=C(Nc1csc(-c2ccncc2)n1)Nc1cccc2[nH]cnc12, CN(C(=O)Nc1csc(-c2ccncc2)n1)c1ccccn1, O=C(Nc1cccc(N2CCCCC2)n1)Nc1csc(-c2ccncc2)n1, O=C(Nc1csc(-c2ccncc2)n1)Nc1csc(-c2ccncc2)n1, O=C(Nc1ccccn1)Nc1csc(-c2cccnc2)n1, O=C(Nc1csc(-c2cccnc2)n1)Nc1nccs1, CCc1cccc(NC(=O)Nc2csc(-c3ccncc3)n2)n1, CCCc1cccc(NC(=O)Nc2csc(-c3ccncc3)n2)n1, CN1CCN(c2cccc(NC(=O)Nc3csc(-c4ccncc4)n3)n2)CC1, CCCc1cccc(NC(=O)Nc2csc(-c3ccnc(CC)c3)n2)n1, CCCc1cccc(NC(=O)Nc2cccc(-c3cccnc3)c2)n1, CCc1ccnc(NC(=O)Nc2csc(-c3ccncc3)n2)c1, CN(C)CCNc1cccc(NC(=O)Nc2csc(-c3ccncc3)n2)n1, O=C(Nc1csc(-c2ccncc2)n1)Nc1nccs1, NC(=O)c1ccc(NC(=O)Nc2csc(-c3ccncc3)n2)nc1, O=C(Nc1csc(-c2cccnc2)n1)Nc1nc(-c2cccnc2)cs1, O=C(Nc1csc(-c2cccnc2)n1)Nc1csc(-c2cccnc2)n1, Cc1cccnc1NC(=O)Nc1csc(-c2ccncc2)n1, CCN(CC)Cc1cccc(NC(=O)Nc2csc(-c3ccncc3)n2)n1, O=C(Nc1ccccn1)Nc1csc(-c2ccccn2)n1, O=C(Nc1cccc(N2CCOCC2)n1)Nc1csc(-c2ccncc2)n1, O=C(Nc1cccc(NCCCN2CCOCC2)n1)Nc1csc(-c2ccncc2)n1, O=C(Nc1csc(-c2ccncc2)n1)Nc1cc2ccccc2c(Br)n1, CCN(CC)c1cccc(NC(=O)Nc2csc(-c3ccncc3)n2)n1, O=C(Nc1ccccn1)Nc1csc(-c2ccncc2)n1
